Consider three molecules from patent US8778915B2, “Method for the treatment of central nervous system cancers and compositions related thereto” (Emory University, priority 2010, dated 2014).

Test [1] relates to human neuroblastoma xenograft. Nature of the test: Mouse xenograft model of human neuroblastoma. The format is in vivo, female athymic nude mice. Conditions: after 8 days of treatment. An excerpt:
The vehicle group received saline only. Data were normalized to the baseline values (day 1) and expressed as percent change in daily tumor growth. […] The vehicle group received saline only. Values are expressed as mean tumor size for the different animals in each group. The significance of results was set at P<0.05 two-tailed. Values are expressed as % change in Means±SEM of tumor volume in different groups. […] Tumors were allowed to grow to ˜200 to 250 mm^3 and mice were divided into groups. […] This regimen was planned to be continued for up to two weeks to examine maximum tumor burden. All treated animals are being compared to appropriate controls for analysis of rate of daily tumor growth, tumor volume and regression. Toxicity is being assessed daily by survival, activity and body weight.

The test system of test [2] is human neuroblastoma (SK-N-AS) cells. Kind of test: Cell viability, repeated daily exposure for 3 and 6 days, neuroblastoma cells. Format: cell-based. The following applies: 0.1-160 μM. The procedure: Analysis of variance (ANOVA) followed by a Dunnett test was used to compare treatment groups to controls. […] Values were expressed as means±SD of three experiments.
FIG. 3 show the effects of PROG exposure for 3 and 6 days on the viability of Neuroblastoma cells (SK-N-AS). Cells were exposed to different concentrations of PROG (0.1, 1, 5, 10, 20, 80, 160 μM) daily for 3 days and 6 days. The statistical analysis of data was performed with analysis of variance (ANOVA) followed by Dunnett test to compare several treatment group to a single control group. The significance of results was set at P<0.05. Values are expressed as Means±SD of three experiments. Significant difference *P<0.05 when compared to control.

For test [3], the system named is U87MG glioblastoma cell line. Kind of test: Morphology of glioblastoma cells, phase contrast microscope. The format is cell-based, human. Conditions: high concentrations (40, 80 and 160 μM).
The next test relates to neuroblastoma cells. The following applies: 10 μM; cited from earlier work.
For test [4], the system named is human glioblastoma cell line U87dEGFR. Kind of test: Cell viability, repeated exposure, glioblastoma-2 cells. Format: cell-based. As to the method:
(§1) Cells were exposed to different concentrations of PROG daily for 3 days and 6 days by replacing culture medium containing PROG. The stock solution of PROG was prepared in DMSO (Final concentration: <5 μl/ml medium). Data were analyzed using analysis of variance (ANOVA) followed by Dunnett's test. Values are expressed as Means±SD of two independent experiments with duplicate samples. Significant difference *P<0.05 when compared to control values.

Test [5] concerns human glioblastoma cell line U87MG. Kind of test: Cell viability, repeated exposure, glioblastoma-1 cells. Format: cell-based. As to the method:
as §1

In another test the test system is breast cancer. Conditions: single injection of depot progesterone prior to breast cancer therapy, over 1000 women, 65 months after diagnosis and treatment; cited from earlier work.
In test [6] the test system is human neuroblastoma (SK-N-AS) cells. Kind of test: MTT cell viability, single 48 h exposure, neuroblastoma cells. Format: cell-based. The following applies: single exposure 48 hours, at 5 μM and 10 μM, P<0.05 compared to control. As to the method: Data were evaluated by analysis of variance (ANOVA) followed by Dunnett test for individual comparisons. […] Values were expressed as means±SD of three experiments.
The human neuroblastoma cells (SK-N-AS) were cultured in a DMEM medium and E18 rat primary cortical neurons were cultured for 8-10 days in Neurobasal medium. […] An MTT reduction assay was used to estimate cell viability.

The test system of the next test is glioblastoma. The following applies: first study; cited from earlier work.
In the next test the test system is PC-12 cells. Nature of the test: Survival of PC-12 cells treated with cyclodextrin. Format: cell-based. The following applies: 48 h, very high concentration (320 uM). As to the method:
PC-12 cells were treated with different concentrations of cyclodextrin for 48 h. The values are expressed as mean±SD of duplicate samples. This experiment was done to answer the question if any compound can kill tumor cells at high doses. B-Cyclodextrin is an inert compound and used as a vehicle for Progesterone.

The mark [7] stands for this setting: repeated exposure 3 and 6 days, high doses.

With `CC(=O)[C@H]1CC[C@H]2[C@@H]3CCC4=CC(=O)CC[C@]4(C)[C@H]3CC[C@]12C` [progesterone, pregn-4-ene-3,20-dione], the “reduction of rate of tumor growth compared to saline vehicle” value in test [1] (50 mg/kg peritumoral injection once daily) and in test [1] (100 mg/kg peritumoral injection once daily) was around 50% each time. Also, the cell death result in [2] (daily exposure for 3 days) is “significant (P<0.05) cell death in a concentration dependant manner”; in [2] (daily exposure for 6 days, concentration dependant), “cell death (P<0.05) was observed”. Besides, the “changes in cell morphology” value in test [3] was “lose their original shape, become detached from the surface, and eventually die”. Moreover, the values for the cell viability entry (in the test with neuroblastoma cells; in test [4] (setting [7]); in [5] (setting [7])) were “significant decrease in cell viability”, “killed both glioblastoma cell lines in a dose dependant manner” and “killed both glioblastoma cell lines in a dose dependant manner”, respectively. Also, the “effectiveness of six days versus 3 days of treatment” value in test [4] (repeated exposure) and in [5] (repeated exposure) was “more effective than 3 days” each time. Moreover, in the test with breast cancer, the reduction of mortality entry is reported as “more than 35%”. Moreover, the “cell death (MTT cell viability)” value in test [6] is listed as “significant cell death”.

Regarding “Avastin: Avastin (bevacizumab), FDA approved to treat glioblastoma at progression after standard therapy”, in the test on glioblastoma, the “patients who survived for at least 6 months without disease progressing” value was 43%, the “patients who survived for at least one year” value is 38% and the “patients with tumor shrinkage” value is 28%.

In the case of `OC[C@H]1O[C@@H]2O[C@H]3[C@H](O)[C@@H](O)[C@@H](O[C@H]4[C@H](O)[C@@H](O)[C@@H](O[C@H]5[C@H](O)[C@@H](O)[C@@H](O[C@H]6[C@H](O)[C@@H](O)[C@@H](O[C@H]7[C@H](O)[C@@H](O)[C@@H](O[C@H]8[C@H](O)[C@@H](O)[C@@H](O[C@H]1[C@H](O)[C@H]2O)O[C@@H]8CO)O[C@@H]7CO)O[C@@H]6CO)O[C@@H]5CO)O[C@@H]4CO)O[C@@H]3CO` [B-Cyclodextrin], the cell death result with PC-12 cells is recorded as “could not induce cell death”.
